Where two headings read alike, the source gives them in different places.
Assays:
mice = experiment: Mouse tail suspension test; type: in vivo
[1] = target: 5-HT Transporter (SERT) sites in mouse brain (Mus musculus (Mouse), UniProt Q60857); experiment: Ex vivo [3H] citalopram binding to SERT sites in mouse brain after oral dosing; settings: mice, 60 min after treatment; for receptor occupancy at 1 mg/kg / receptor occupancy at 3 mg/kg / receptor occupancy at 10 mg/kg / receptor occupancy at 30 mg/kg: mouse
[2] = target: T1, Norepinephrine Transporter (NET) sites in mouse brain (Mus musculus (Mouse), UniProt O55192); settings: mice, 60 min after treatment
Rats = experiment: Rat forced swim test; type: in vivo
[3] = target: T1, Norepinephrine Transporter (NET) sites in mouse brain; experiment: in vivo; settings: po, read-out: NET % Transporter Occupancy
[4] = target: DA Transporter (DAT) sites in mouse brain (Mus musculus (Mouse), UniProt Q61327); experiment: Ex vivo [3H] WIN 35428 binding to DAT sites in mouse brain after oral dosing; settings: mice, 60 min after treatment; for receptor occupancy at 1 mg/kg / receptor occupancy at 3 mg/kg / receptor occupancy at 10 mg/kg / receptor occupancy at 30 mg/kg: mouse
[5] = target: human dopamine transporter (Homo sapiens (Human), UniProt Q01959); experiment: Dopamine functional uptake assay, recombinant human transporter in CHO-K1 or HEK293 cells; type: cell-based; settings: read-out: hDAT IC50
Sequence of human dopamine transporter (Q01959 whole entry): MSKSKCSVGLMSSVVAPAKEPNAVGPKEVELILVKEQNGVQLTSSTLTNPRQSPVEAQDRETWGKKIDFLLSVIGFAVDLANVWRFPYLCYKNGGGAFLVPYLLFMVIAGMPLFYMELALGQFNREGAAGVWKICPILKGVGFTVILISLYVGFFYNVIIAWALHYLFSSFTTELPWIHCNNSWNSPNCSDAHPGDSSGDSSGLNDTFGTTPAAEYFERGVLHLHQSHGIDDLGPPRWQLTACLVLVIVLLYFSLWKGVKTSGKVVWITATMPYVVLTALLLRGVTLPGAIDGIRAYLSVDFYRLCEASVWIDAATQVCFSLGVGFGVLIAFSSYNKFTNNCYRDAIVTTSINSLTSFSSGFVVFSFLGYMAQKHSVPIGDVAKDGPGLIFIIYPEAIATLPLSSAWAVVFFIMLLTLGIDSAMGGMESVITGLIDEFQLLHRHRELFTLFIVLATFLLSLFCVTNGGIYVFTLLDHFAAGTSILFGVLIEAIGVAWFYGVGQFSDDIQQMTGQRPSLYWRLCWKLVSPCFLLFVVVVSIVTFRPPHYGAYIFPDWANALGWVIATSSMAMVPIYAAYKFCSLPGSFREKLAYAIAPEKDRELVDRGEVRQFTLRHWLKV

[6] = target: human serotonin transporter (Homo sapiens (Human), UniProt P31645); experiment: Serotonin functional uptake assay, recombinant human transporter in HEK-293 cells; type: cell-based; settings: Human serotonin transporter uptake; read-out: hSERT IC50
Sequence of human serotonin transporter (P31645 whole entry): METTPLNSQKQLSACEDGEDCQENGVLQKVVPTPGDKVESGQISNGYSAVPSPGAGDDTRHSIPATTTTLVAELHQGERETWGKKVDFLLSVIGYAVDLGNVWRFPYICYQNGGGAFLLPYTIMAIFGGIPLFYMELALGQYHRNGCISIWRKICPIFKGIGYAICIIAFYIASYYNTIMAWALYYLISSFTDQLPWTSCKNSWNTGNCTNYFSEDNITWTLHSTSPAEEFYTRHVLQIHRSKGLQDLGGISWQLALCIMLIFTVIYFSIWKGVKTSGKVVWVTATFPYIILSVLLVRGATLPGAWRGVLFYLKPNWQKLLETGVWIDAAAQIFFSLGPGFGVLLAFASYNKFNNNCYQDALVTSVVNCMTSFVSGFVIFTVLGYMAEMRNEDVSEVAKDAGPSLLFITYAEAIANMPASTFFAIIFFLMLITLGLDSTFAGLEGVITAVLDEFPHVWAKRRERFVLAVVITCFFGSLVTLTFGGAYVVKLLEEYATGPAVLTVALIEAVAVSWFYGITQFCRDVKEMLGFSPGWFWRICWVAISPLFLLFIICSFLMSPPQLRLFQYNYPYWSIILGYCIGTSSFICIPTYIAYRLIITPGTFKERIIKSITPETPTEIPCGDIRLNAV

CN(C)C[C@]1(c2ccc3ccccc3c2)CCCC[C@H]1O (relative stereo) [164 E2, trans-2-((dimethylamino)methyl)-2-(naphthalen-2-yl)cyclohexanol]
Mouse Tail Suspension Mean Immobility Time ± S.E.M. (mice; 30 mg/kg PO): 141.8 ± 6.0

CC(N(C)C)C1(c2ccc3ccccc3c2)CCCCC1 (single isomer, unassigned) [56 E1, N,N-dimethyl-1-(1-(naphthalen-2-yl)cyclohexyl)ethanamine]
SERT Mean Specific Binding ± S.E.M. ([1]; 1 mg/kg PO): 2625 ± 138 dpm | SERT Mean Specific Binding ± S.E.M. ([1]; 3 mg/kg PO): 1346 ± 109 dpm | SERT Mean Specific Binding ± S.E.M. ([1]; 10 mg/kg PO): 278 ± 42 dpm | SERT Mean Specific Binding ± S.E.M. ([1]; 30 mg/kg PO): 151 ± 60 dpm | receptor occupancy at 1 mg/kg ([1]; 1 mg/kg PO): 19% | receptor occupancy at 3 mg/kg ([1]; 3 mg/kg PO): 58% | receptor occupancy at 10 mg/kg ([1]; 10 mg/kg PO): 91% | receptor occupancy at 30 mg/kg ([1]; 30 mg/kg PO): 95% | NET Mean Specific Binding ± S.E.M. ([2]; 1 mg/kg PO): 616 ± 50 dpm | NET Mean Specific Binding ± S.E.M. ([2]; 3 mg/kg PO): 368 ± 17 dpm | NET Mean Specific Binding ± S.E.M. ([2]; 10 mg/kg PO): 106 ± 20 dpm | NET Mean Specific Binding ± S.E.M. ([2]; 30 mg/kg PO): 19 ± 2 dpm | Rat Forced Swim Climbing (Means ± S.E.M.) (Rats; 3 mg/kg PO): 7.1 ± 1.6 | Rat Forced Swim Immobility (Means ± S.E.M.) (Rats; 3 mg/kg PO): 52.2 ± 1.6 | Rat Forced Swim Swimming (Means ± S.E.M.) (Rats; 3 mg/kg PO): 0.3 ± 0.2 | Rat Forced Swim Climbing (Means ± S.E.M.) (Rats; 10 mg/kg PO): 8.6 ± 0.9 | Rat Forced Swim Immobility (Means ± S.E.M.) (Rats; 10 mg/kg PO): 50.7 ± 1.0 | Rat Forced Swim Swimming (Means ± S.E.M.) (Rats; 10 mg/kg PO): 0.8 ± 0.3 | Rat Forced Swim Climbing (Means ± S.E.M.) (Rats; 30 mg/kg PO): 17.9 ± 2.4 | Rat Forced Swim Immobility (Means ± S.E.M.) (Rats; 30 mg/kg PO): 40.4 ± 2.7 | Rat Forced Swim Swimming (Means ± S.E.M.) (Rats; 30 mg/kg PO): 1.0 ± 0.4 | receptor occupancy at 1 mg/kg [3]: 20% | receptor occupancy at 3 mg/kg [3]: 52% | receptor occupancy at 10 mg/kg [3]: 86% | receptor occupancy at 30 mg/kg [3]: 98% | Mouse Tail Suspension Mean Immobility Time ± S.E.M. (mice; 10 mg/kg PO): 174.8 ± 6.1 | Mouse Tail Suspension Mean Immobility Time ± S.E.M. (mice; 30 mg/kg PO): 141.9 ± 7.4 | DAT Mean Specific Binding ± S.E.M. ([4]; 1 mg/kg PO): 41561 ± 1611 dpm | DAT Mean Specific Binding ± S.E.M. ([4]; 3 mg/kg PO): 42127 ± 2130 dpm | DAT Mean Specific Binding ± S.E.M. ([4]; 10 mg/kg PO): 33478 ± 1779 dpm | DAT Mean Specific Binding ± S.E.M. ([4]; 30 mg/kg PO): 14637 ± 1567 dpm | receptor occupancy at 1 mg/kg ([4]; 1 mg/kg PO): 5% | receptor occupancy at 3 mg/kg ([4]; 3 mg/kg PO): 4% | receptor occupancy at 10 mg/kg ([4]; 10 mg/kg PO): 23% | receptor occupancy at 30 mg/kg ([4]; 30 mg/kg PO): 67%

CNCC1(c2ccc(Cl)c(Cl)c2)CCC(C)(O)CC1 (centres unmarked) [Compound 276, 4-(3,4-dichlorophenyl)-1-methyl-4-((methylamino)methyl)cyclohexanol]
SERT Mean Specific Binding ± S.E.M. ([1]; 1 mg/kg PO): 3743 ± 199 dpm | SERT Mean Specific Binding ± S.E.M. ([1]; 3 mg/kg PO): 3685 ± 292 dpm | SERT Mean Specific Binding ± S.E.M. ([1]; 10 mg/kg PO): 3092 ± 207 dpm | SERT Mean Specific Binding ± S.E.M. ([1]; 30 mg/kg PO): 1558 ± 169 dpm | receptor occupancy at 1 mg/kg ([1]; 1 mg/kg PO): 12% | receptor occupancy at 3 mg/kg ([1]; 3 mg/kg PO): 14% | receptor occupancy at 10 mg/kg ([1]; 10 mg/kg PO): 28% | receptor occupancy at 30 mg/kg ([1]; 30 mg/kg PO): 64% | NET Mean Specific Binding ± S.E.M. ([2]; 1 mg/kg PO): 1602 ± 51 dpm | NET Mean Specific Binding ± S.E.M. ([2]; 3 mg/kg PO): 1631 ± 92 dpm | NET Mean Specific Binding ± S.E.M. ([2]; 10 mg/kg PO): 1553 ± 27 dpm | NET Mean Specific Binding ± S.E.M. ([2]; 30 mg/kg PO): 1138 ± 59 dpm | IC50 [5]: 71 nM | receptor occupancy at 1 mg/kg [3]: -4% | receptor occupancy at 3 mg/kg [3]: -6% | receptor occupancy at 10 mg/kg [3]: -1% | receptor occupancy at 30 mg/kg [3]: 26% | DAT Mean Specific Binding ± S.E.M. ([4]; 3 mg/kg PO): 16312 ± 2396 dpm | DAT Mean Specific Binding ± S.E.M. ([4]; 10 mg/kg PO): 15879 ± 2265 dpm | DAT Mean Specific Binding ± S.E.M. ([4]; 30 mg/kg PO): 10397 ± 931 dpm | receptor occupancy at 1 mg/kg ([4]; 1 mg/kg PO): -21% | receptor occupancy at 3 mg/kg ([4]; 3 mg/kg PO): -9% | receptor occupancy at 10 mg/kg ([4]; 10 mg/kg PO): -6% | receptor occupancy at 30 mg/kg ([4]; 30 mg/kg PO): 31%

CN(C)C[C@]1(c2ccc(C(F)(F)F)cc2)CCCC[C@H]1O (single isomer, unassigned) [160 E2, trans-2-((dimethylamino)methyl)-2-(4-(trifluoromethyl)phenyl)cyclohexanol]
IC50 [5]: > 10000 nM | IC50 [6]: 5090 nM

CN(C)C[C@@]1(c2ccc(Cl)c(F)c2)CCCC[C@H]1O (single isomer, unassigned) [157 E2, Cis-2-(4-chloro-3-fluorophenyl)-2-((dimethylamino)methyl)cyclohexanol]
IC50 [5]: 849 nM | IC50 [6]: 290 nM

CN(C)C[C@]1(c2ccc(Cl)cc2)CCCC[C@H]1O (single isomer, unassigned) [154 E2, trans-2-(4-chlorophenyl)-2-((dimethylamino)methyl)cyclohexanol]
IC50 [5]: 888 nM | IC50 [6]: 439 nM

CN(C)C[C@@]1(c2ccc(C(F)(F)F)cc2)CCCC[C@H]1O (single isomer, unassigned) [159 E1, cis-2-((dimethylamino)methyl)-2-(4-(trifluoromethyl)phenyl)cyclohexanol]
IC50 [5]: 3800 nM | IC50 [6]: 1260 nM

CNC(=O)[C@@]1(c2ccc3ccccc3c2)CCCC[C@H]1O (relative stereo) [Compound 300, cis-2-hydroxy-N-methyl-1-(naphthalen-2-yl)cyclohexanecarboxamide]
IC50 [5]: 1730 nM | IC50 [6]: > 10000 nM

CNCC1(c2ccc3ccccc3c2)CCCCC1 [Compound 93, N-methyl-1-(1-(naphthalen-2-yl)cyclohexyl)methanamine]
Rat Forced Swim Climbing (Means ± S.E.M.) (Rats; 3 mg/kg PO): 9.0 ± 1.3 | Rat Forced Swim Immobility (Means ± S.E.M.) (Rats; 3 mg/kg PO): 44.5 ± 2.5 | Rat Forced Swim Swimming (Means ± S.E.M.) (Rats; 3 mg/kg PO): 6.5 ± 1.6 | Rat Forced Swim Climbing (Means ± S.E.M.) (Rats; 10 mg/kg PO): 12.8 ± 2.2 | Rat Forced Swim Immobility (Means ± S.E.M.) (Rats; 10 mg/kg PO): 41.4 ± 2.8 | Rat Forced Swim Swimming (Means ± S.E.M.) (Rats; 10 mg/kg PO): 6.9 ± 1.3 | Rat Forced Swim Climbing (Means ± S.E.M.) (Rats; 30 mg/kg PO): 22.2 ± 3.5 | Rat Forced Swim Immobility (Means ± S.E.M.) (Rats; 30 mg/kg PO): 25.8 ± 5.4 | Rat Forced Swim Swimming (Means ± S.E.M.) (Rats; 30 mg/kg PO): 12.0 ± 2.1 | Mouse Tail Suspension Mean Immobility Time ± S.E.M. (mice; 30 mg/kg PO): 162.0 ± 8.1

CN(C)C[C@]1(c2ccc(Cl)c(F)c2)CCCC[C@H]1O (single isomer, unassigned) [158 E2, Trans-2-(4-chloro-3-fluorophenyl)-2-((dimethylamino)methyl)cyclohexanol]
IC50 [5]: 5020 nM | IC50 [6]: 2990 nM

CCNC[C@@]1(c2ccc(Cl)c(Cl)c2)CCCC[C@H]1C (racemic) [Compound 177, (±) cis-N-((1-(3,4-dichlorophenyl)-2-methylcyclohexyl)methyl)ethanamine]
IC50 [5]: 322 nM | IC50 [6]: 3220 nM

CO[C@@H]1CCC[C@@](CN)(c2ccc(Cl)c(Cl)c2)C1 [Compound 192]
IC50 [5]: 1960 nM | IC50 [6]: > 10000 nM

CN(C)CC1(c2ccc(Cl)c(Cl)c2)CCC(C)(O)CC1 (centres unmarked) [Compound 277, 4-(3,4-dichlorophenyl)-4-((dimethylamino)methyl)-1-methylcyclohexanol]
SERT Mean Specific Binding ± S.E.M. ([1]; 1 mg/kg PO): 1508 ± 86 dpm | SERT Mean Specific Binding ± S.E.M. ([1]; 3 mg/kg PO): 1491 ± 75 dpm | SERT Mean Specific Binding ± S.E.M. ([1]; 10 mg/kg PO): 1416 ± 43 dpm | SERT Mean Specific Binding ± S.E.M. ([1]; 30 mg/kg PO): 1384 ± 101 dpm | receptor occupancy at 1 mg/kg ([1]; 1 mg/kg PO): -6% | receptor occupancy at 3 mg/kg ([1]; 3 mg/kg PO): -5% | receptor occupancy at 10 mg/kg ([1]; 10 mg/kg PO): 0% | receptor occupancy at 30 mg/kg ([1]; 30 mg/kg PO): 3% | NET Mean Specific Binding ± S.E.M. ([2]; 1 mg/kg PO): 950 ± 46 dpm | NET Mean Specific Binding ± S.E.M. ([2]; 3 mg/kg PO): 824 ± 30 dpm | NET Mean Specific Binding ± S.E.M. ([2]; 10 mg/kg PO): 533 ± 25 dpm | NET Mean Specific Binding ± S.E.M. ([2]; 30 mg/kg PO): 294 ± 42 dpm | IC50 [5]: 41 nM | receptor occupancy at 1 mg/kg [3]: 6% | receptor occupancy at 3 mg/kg [3]: 18% | receptor occupancy at 10 mg/kg [3]: 47% | receptor occupancy at 30 mg/kg [3]: 71% | DAT Mean Specific Binding ± S.E.M. ([4]; 1 mg/kg PO): 35827 ± 2302 dpm | DAT Mean Specific Binding ± S.E.M. ([4]; 3 mg/kg PO): 34136 ± 4104 dpm | DAT Mean Specific Binding ± S.E.M. ([4]; 10 mg/kg PO): 33230 ± 2807 dpm | DAT Mean Specific Binding ± S.E.M. ([4]; 30 mg/kg PO): 31743 ± 4406 dpm | receptor occupancy at 1 mg/kg ([4]; 1 mg/kg PO): 17% | receptor occupancy at 3 mg/kg ([4]; 3 mg/kg PO): 21% | receptor occupancy at 10 mg/kg ([4]; 10 mg/kg PO): 23% | receptor occupancy at 30 mg/kg ([4]; 30 mg/kg PO): 26%

CCN(C)[C@H]1CC[C@@](CN)(c2ccc(Cl)c(Cl)c2)CC1 [Compound 290, trans-4-(aminomethyl)-4-(3,4-dichlorophenyl)-N-ethyl-N-methylcyclo-hexanamine]
IC50 [5]: 1390 nM | IC50 [6]: 992 nM

CNC[C@]1(c2ccc(Cl)c(Cl)c2)CC[C@H](O)CC1 [Compound 287, cis-4-(3,4-dichlorophenyl)-4-((methylamino)methyl)cyclohexanol]
IC50 [5]: 192 nM | IC50 [6]: 1040 nM

COc1ccc([C@@]2(CN(C)C)CCCC[C@H]2O)cc1 (single isomer, unassigned) [156 E2, trans-2-((dimethylamino)methyl)-2-(4-methoxyphenyl)cyclohexanol]
IC50 [5]: 4000 nM | IC50 [6]: 653 nM

OC1CCCC1NCC1(c2ccc(Cl)c(Cl)c2)CCCCC1 (racemic) [Compound 116, (±) 2-((1-(3,4-dichlorophenyl)cyclohexyl)methylamino)cyclopentanol]
IC50 [5]: 3 nM | IC50 [6]: 2060 nM

From patent US10562878B2, “Cycloalkylamines as monoamine reuptake inhibitors” (Sunovion Pharmaceuticals Inc., priority 2006, dated 2020)
